Measured values: ChEMBL document CHEMBL6153139, “Discovery of Novel Isoxazole-Based Small-Molecule Toll-Like Receptor 8 Antagonists” (J Med Chem, 2025)
Activity calls are given as the source filed them. The rule behind the calls is not given here.

Legend:
[1] = Cytotoxicity against HEK-Blue hTLR8 cells assessed as reduction in cell viability at 25 to 50 uM incubated for 24 hrs by MTT assay; format: toxicity, cell-based; conditions: human, hek-blue htlr8, 24 h, dose 25-50 µM
[2] = Cytotoxicity against human PBMC cells assessed as reduction in cell viability upto 100 uM incubated for 24 hrs by LDH release assay; format: toxicity, cell-based
[3] = system: THP-1; assay: Cytotoxicity against human THP-1 cells assessed as reduction in cell viability upto 100 uM incubated for 24 hrs by MTT assay; format: toxicity, cell-based; conditions: thp-1, 24 h
[4] = system: T1, Toll-like receptor 8 (Homo sapiens), Q9NR97 [F495L]; assay: Antagonist activity at human TLR8 F495L mutant transfected in HEK293 cells assessed as inhibition of TL8-506 induced NFkappaB activation at 1 uM preincubated with compound for 1 hrs followed by TL8-506 addition and measured after 24 hrs by Quanti-blue reagent based SEAP reporter assay; format: cell-based; conditions: filed as antagonist
T1 sequence (whole entry): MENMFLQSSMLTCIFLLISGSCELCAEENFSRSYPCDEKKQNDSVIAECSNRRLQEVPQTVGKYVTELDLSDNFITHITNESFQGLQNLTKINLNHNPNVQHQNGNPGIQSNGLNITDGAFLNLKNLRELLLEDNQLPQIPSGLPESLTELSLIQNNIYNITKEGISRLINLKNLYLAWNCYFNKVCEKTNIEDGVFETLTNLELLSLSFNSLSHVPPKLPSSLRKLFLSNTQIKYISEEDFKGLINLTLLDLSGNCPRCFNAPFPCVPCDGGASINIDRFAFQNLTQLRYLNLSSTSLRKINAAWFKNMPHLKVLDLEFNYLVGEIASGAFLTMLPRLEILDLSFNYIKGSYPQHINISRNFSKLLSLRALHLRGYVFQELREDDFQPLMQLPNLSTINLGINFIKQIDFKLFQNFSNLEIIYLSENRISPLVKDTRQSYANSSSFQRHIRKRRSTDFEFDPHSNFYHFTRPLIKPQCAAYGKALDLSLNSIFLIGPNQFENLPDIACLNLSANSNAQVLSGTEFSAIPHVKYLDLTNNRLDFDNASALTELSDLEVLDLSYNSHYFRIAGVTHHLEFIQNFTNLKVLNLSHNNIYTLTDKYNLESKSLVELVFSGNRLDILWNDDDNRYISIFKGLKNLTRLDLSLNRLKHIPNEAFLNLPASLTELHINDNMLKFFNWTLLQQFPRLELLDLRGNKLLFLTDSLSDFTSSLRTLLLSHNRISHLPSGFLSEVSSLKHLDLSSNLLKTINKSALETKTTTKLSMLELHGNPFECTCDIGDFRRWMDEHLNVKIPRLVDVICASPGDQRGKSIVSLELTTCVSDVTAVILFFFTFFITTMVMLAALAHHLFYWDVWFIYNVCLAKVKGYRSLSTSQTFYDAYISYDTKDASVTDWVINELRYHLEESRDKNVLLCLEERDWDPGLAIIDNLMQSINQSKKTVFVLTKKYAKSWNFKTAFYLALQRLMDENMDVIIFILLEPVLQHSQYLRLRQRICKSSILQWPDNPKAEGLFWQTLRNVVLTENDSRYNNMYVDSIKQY

[5] = system: T1, Toll-like receptor 8 (Homo sapiens), Q9NR97 [F495L]; assay: Antagonist activity at human TLR8 F495L mutant transfected in HEK293 cells assessed as inhibition of CL075 induced NFkappaB activation at 1 uM preincubated with compound for 1 hrs followed by CL075 addition and measured after 24 hrs by Quanti-blue reagent based SEAP reporter assay; format: cell-based; conditions: filed as antagonist

Row | Structure (SMILES) | Activity [1] | Activity [2] | Activity [3] | Activity [4] | Activity [5]
1 | COc1cc(C(=O)NCCN2CCCC2)ccc1OCc1c(C)noc1C | Non-toxic |  |  |  | 
2 | COc1cc(C(=O)NCC(c2ccc(C)cc2)N(C)C)ccc1OCc1c(C)noc1C (configuration not stated) | Non-toxic | Non-toxic | Non-toxic |  | 
3 | N#Cc1ccc(N2C[C@H](N)C[C@H](C(F)(F)F)C2)c2cccnc12 |  |  |  | Active | Active
4 | Cc1noc(C)c1COc1ccc(C(=O)NCC(c2ccco2)N(C)C)cc1 (configuration not stated) | Non-toxic |  |  |  | 
